Our source for the inhibition and IC50 values is ChEMBL document CHEMBL6153048, “Synthesis and pharmacological evaluation of natural product diphyllin derivatives against head and neck squamous cell carcinoma” (Eur J Med Chem, 2025).

Where only a bound is given, the exact number is not on record here.

For data set [1], the system named is CAL-27. In words: Antiproliferative activity against human CAL-27 cells assessed as inhibition rate at 0.1 uM incubated for 72 hrs by MTT assay relative to control. The class given is functional. (Tetrazolium assays rely on reduction of a dye to a coloured formazan, in cell work by metabolically active cells.)
Data set [2] is described as follows: Antiproliferative activity against human HN-6 cells assessed as inhibition rate at 0.1 uM incubated for 72 hrs by MTT assay relative to control. The class given is functional.
The nature of data set [3]: Antiproliferative activity against human WSU HN-30 cells assessed as inhibition rate at 0.1 uM incubated for 72 hrs by MTT assay relative to control. The class given is functional. To be noted: WSU-HN30.
The test system of data set [4] is SCC-9. In words: Antiproliferative activity against human SCC-9 cells assessed as inhibition rate at 0.1 uM incubated for 72 hrs by MTT assay relative to control. The class given is functional.
Data set [5] concerns SCC-25. In words: Antiproliferative activity against human SCC-25 cells assessed as inhibition rate at 0.1 uM incubated for 72 hrs by MTT assay relative to control. The class given is functional.
Data set [6] is described as follows: Antiproliferative activity against human L02 cells assessed as inhibition rate at 0.1 uM incubated for 72 hrs by MTT assay relative to control. The data set is classed as toxicity, cell-based.
The subject of data set [7] is CAL-27. In words: Cytotoxicity against human CAL-27 cells incubated for 72 hrs by MTT assay. The class given is functional, cell-based. The note with it: CAL-27, 72 h.
A short description of data set [8]: Cytotoxicity against human HN-6 cells incubated for 72 hrs by MTT assay. The data set is classed as functional, cell-based. The note with it: HN-6, 72 h.
Data set [9] can be described thus: Cytotoxicity against human […] incubated for 72 hrs by MTT assay. The note with it: WSU-HN30, 72 h. The class given is functional, cell-based.
In data set [10] the test system is SCC-9. In words: Cytotoxicity against human SCC-9 cells incubated for 72 hrs by MTT assay. The note with it: SCC-9, 72 h. The data set is classed as functional, cell-based.
Data set [11] has as its system SCC-25. In words: Cytotoxicity against human SCC-25 cells incubated for 72 hrs by MTT assay. The data set is classed as functional, cell-based. The note with it: SCC-25, 72 h.
Data set [12] can be described thus: Cytotoxicity against human L02 cells incubated for 72 hrs by MTT assay. The data set is classed as toxicity, cell-based.

By inhibition is commonly meant the share of the control response that was lost under treatment. On to `COc1cc2c(OCCOCCNC(=O)C3(F)CNC3)c3c(c(-c4ccc5c(c4)OCO5)c2cc1OC)C(=O)OC3`, for which the inhibition at 0.1 µM in data set [1] was 9.95%; in data set [2], 10.8%; in data set [3], 10.7%; in [4], 32.6%; in data set [5] it was 19.5%. For the same compound, in [6], the inhibition at 72 h, 0.1 µM is 3.51%.
For the compound `COc1cc2c(O[C@@H]3O[C@@H]4CO[C@@H](c5ccc(SC)cc5)O[C@H]4[C@H](O)[C@H]3O)c3c(c(-c4ccc5c(c4)OCO5)c2cc1OC)C(=O)OC3`, the inhibition at 0.1 µM was 35.9% in [1]; 57.1% in [2]; 47.4% in data set [3]; 41.1% in data set [4]; 35.4% in data set [5]. Further, the inhibition at 72 h, 0.1 µM in [6] was found to be 6.84%.
Turning to `COc1cc2c(OCCN)c3c(c(-c4ccc5c(c4)OCO5)c2cc1OC)C(=O)OC3`, the inhibition at 0.1 µM in data set [1] worked out at 6.31%; in data set [2] it was 28.2%; in [3] it was 18.9%; in data set [4], 30.4%; in data set [5] it was 10.8%. In addition, in data set [6], the inhibition at 72 h, 0.1 µM came out at 7.89%.
The term IC50 denotes the concentration needed to halve the response being measured. Read a high IC50 as lower potency. On to `COc1cc2c(O[C@@H]3O[C@@H]4CO[C@@H](c5ccsc5)O[C@H]4[C@H](OC(C)=O)[C@H]3OC(C)=O)c3c(c(-c4ccc5c(c4)OCO5)c2cc1OC)C(=O)OC3`, for which the inhibition at 0.1 µM was determined as 48.2% in [1]; 61.1% in data set [2]; 49.4% in data set [3]; 45.8% in [4]; 47.4% in [5]. Moreover, the inhibition at 72 h, 0.1 µM in [6] is 9.07%. Further, the 50% inhibitory concentration (IC50) in data set [7] turned out to be 20.1 nM; in data set [8] it was 11.6 nM; in data set [9], 92.6 nM; in [10], 16.1 nM; in data set [11], 43.3 nM. Further, the IC50 at 72 h in data set [12] was over 10000 nM.
Consider `COc1cc2c(O[C@@H]3O[C@@H]4CO[C@@H](c5csc(Br)c5)O[C@H]4[C@H](O)[C@H]3O)c3c(c(-c4ccc5c(c4)OCO5)c2cc1OC)C(=O)OC3`, for which the inhibition at 0.1 µM in [1] worked out at 78.3%; in [2] it was 57.6%; in [3], 49.9%; in data set [4] it was 72.3%; in data set [5] it was 58.4%. The inhibition at 72 h, 0.1 µM in data set [6] came to 20.8%. In addition, the IC50 turned out to be 14.5 nM in [7]; 6.07 nM in data set [8]; 7.33 nM in data set [9]; 16.4 nM in data set [10]; 86.4 nM in data set [11]. Besides, the midpoint of inhibition in data set [12], the IC50 at 72 h, lay at 3680 nM.
For `COc1cc2c(OCCOCCNC(=O)C3=C[C@H](O)[C@H](O)[C@@H](O)C3)c3c(c(-c4ccc5c(c4)OCO5)c2cc1OC)C(=O)OC3`, the inhibition at 0.1 µM in data set [1] came to 31.1%; in data set [2] it was 27.2%; in data set [3], 16.2%; in data set [4] it was 22.2%; in [5], 31.4%. Besides, in data set [6], the inhibition at 72 h, 0.1 µM stood at 5.67%.
Take `COc1cc2c(O[C@@H]3O[C@@H]4CO[C@@H](c5cccc(C(F)(F)F)c5)O[C@H]4[C@H](O)[C@H]3O)c3c(c(-c4ccc5c(c4)OCO5)c2cc1OC)C(=O)OC3`: the inhibition at 0.1 µM in data set [1] is 37.4%; in data set [2], 60.6%; in data set [3], 40.9%; in [4], 37.5%; in [5], 33.6%. Further, in data set [6], the inhibition at 72 h, 0.1 µM was found to be 9.53%.
For the compound `COc1cc2c(O[C@@H]3O[C@@H]4CO[C@@H](C5CCCC5)O[C@H]4[C@H](O)[C@H]3O)c3c(c(-c4ccc5c(c4)OCO5)c2cc1OC)C(=O)OC3`, the inhibition at 0.1 µM was 8.02% in data set [1]; 54.2% in [2]; 40.5% in [3]; 42% in data set [4]; 49.1% in [5]. Also, the inhibition at 72 h, 0.1 µM in [6] was 9.37%.
Regarding `COc1cc2c(NC(=O)C(F)(F)[C@]3(O)O[C@H](CO)[C@@H](O)[C@H](O)[C@H]3O)c3c(c(-c4ccc5c(c4)OCO5)c2cc1OC)C(=O)OC3`, the inhibition at 0.1 µM in [1] is 27.6%; in data set [2] it was 13.1%; in data set [3] it was 12.3%; in [4], 19.4%; in data set [5], 28.2%. The inhibition at 72 h, 0.1 µM in data set [6] was found to be 4.58%.
Turning to `COc1cc2c(NC(=O)C(F)(F)[C@]3(OCc4ccccc4)O[C@H](COCc4ccccc4)[C@@H](OCc4ccccc4)[C@H](OCc4ccccc4)[C@H]3OCc3ccccc3)c3c(c(-c4ccc5c(c4)OCO5)c2cc1OC)C(=O)OC3`, the inhibition at 0.1 µM in [1] was 26.1%; in data set [2] it was 12.7%; in data set [3], 8.5%; in [4], 14.7%; in data set [5], 17.8%. Further, in data set [6], the inhibition at 72 h, 0.1 µM is 3.29%.
As for `COc1cc2c(OCCOCCNC(=O)CON)c3c(c(-c4ccc5c(c4)OCO5)c2cc1OC)C(=O)OC3`, the inhibition at 0.1 µM in data set [1] was 33%; in data set [2], 18.7%; in data set [3] it was 23.5%; in data set [4], 18.7%; in data set [5] it was 31.8%. The inhibition at 72 h, 0.1 µM in data set [6] amounted to 9.46%.
Consider `COc1cc2c(NC(=O)C(F)(F)[C@]3(O)O[C@@H]4CO[C@@H](c5ccsc5)O[C@H]4[C@H](O)[C@H]3O)c3c(c(-c4ccc5c(c4)OCO5)c2cc1OC)C(=O)OC3`, for which the inhibition at 0.1 µM in data set [1] turned out to be 25.8%; in data set [2], 14.5%; in data set [3], 14%; in data set [4], 16.6%; in data set [5], 23.6%. Moreover, the inhibition at 72 h, 0.1 µM in [6] came to 3.32%.
Turning to `COc1cc2c(OCCOCCNC(=O)[C@H]3[C@@H]4CNC[C@@H]43)c3c(c(-c4ccc5c(c4)OCO5)c2cc1OC)C(=O)OC3`, the inhibition at 0.1 µM in data set [1] amounted to 2.26%; in [2] it was 7.38%; in data set [3] it was 6.67%; in [4], 17.5%; in data set [5] it was 14.7%. Also, the inhibition at 72 h, 0.1 µM in data set [6] worked out at 3.53%.
For the compound `COc1cc([C@@H]2c3cc4c(cc3[C@@H](O[C@@H]3O[C@@H]5CO[C@@H](C)O[C@H]5[C@H](O)[C@H]3O)[C@H]3COC(=O)[C@H]23)OCO4)cc(OC)c1O` [ETOPOSIDE], the IC50 is 7490 nM in [7]; over 10000 nM in data set [8]; 1700 nM in [9]; 3700 nM in data set [10]; 693 nM in [11]. For the same compound, the IC50 at 72 h in data set [12] is over 10000 nM.
`COc1cc2c(OCCOCCNC(=O)C3CNCC(F)(F)C3)c3c(c(-c4ccc5c(c4)OCO5)c2cc1OC)C(=O)OC3` (stereo not drawn): the inhibition at 0.1 µM in data set [1] amounted to 2.03%; in data set [2], 10.2%; in [3], 11.7%; in data set [4] it was 25.6%; in [5] it was 23.2%. In addition, the inhibition at 72 h, 0.1 µM in data set [6] was found to be 10.6%.
For `CCC(CC)[C@@H]1OC[C@H]2O[C@@H](Oc3c4c(c(-c5ccc6c(c5)OCO6)c5cc(OC)c(OC)cc35)C(=O)OC4)[C@H](O)[C@@H](O)[C@@H]2O1`, the inhibition at 0.1 µM stood at 24.3% in data set [1]; 55.1% in data set [2]; 38.3% in [3]; 43.2% in data set [4]; 44.9% in data set [5]. The inhibition at 72 h, 0.1 µM in data set [6] came to 8.83%.
For `COc1cc2c(OCCOCCNC(=O)[C@@H]3CCC(=O)N3)c3c(c(-c4ccc5c(c4)OCO5)c2cc1OC)C(=O)OC3`, the inhibition at 0.1 µM in data set [1] came out at 29.5%; in data set [2] it was 19.8%; in [3], 15.9%; in [4], 8.65%; in data set [5], 18.5%. In addition, in data set [6], the inhibition at 72 h, 0.1 µM was determined as 6.04%.
Turning to `COc1cc2c(O[C@@H]3O[C@@H]4CO[C@@H](c5ccc(C)s5)O[C@H]4[C@H](O)[C@H]3O)c3c(c(-c4ccc5c(c4)OCO5)c2cc1OC)C(=O)OC3`, the inhibition at 0.1 µM in [1] turned out to be 32.4%; in data set [2], 57.2%; in data set [3], 40.1%; in data set [4] it was 46.2%; in data set [5], 41%. Further, in [6], the inhibition at 72 h, 0.1 µM came out at 9.5%.
With `COc1cc2c(OCCOCCNC(=O)C(F)(F)[C@]3(O)O[C@H](CO)[C@@H](O)[C@H](O)[C@H]3O)c3c(c(-c4ccc5c(c4)OCO5)c2cc1OC)C(=O)OC3`, the inhibition at 0.1 µM was 1.73% in [1]; 4.3% in data set [2]; 8.25% in [3]; 13.9% in data set [4]; 10.2% in data set [5]. Also, the inhibition at 72 h, 0.1 µM in [6] was 1.74%.
In the case of `COc1cc2c(OCCOCCNC(=O)[C@@H]3CC(F)(F)CN3)c3c(c(-c4ccc5c(c4)OCO5)c2cc1OC)C(=O)OC3`, the inhibition at 0.1 µM came out at 2.62% in data set [1]; 22.3% in data set [2]; 19.9% in [3]; 35.3% in data set [4]; 41.7% in data set [5]. In data set [6], the inhibition at 72 h, 0.1 µM came to 8.13%.
Take `COc1cc2c(O[C@@H]3O[C@@H]4CO[C@@H](C5CCOCC5)O[C@H]4[C@H](O)[C@H]3O)c3c(c(-c4ccc5c(c4)OCO5)c2cc1OC)C(=O)OC3`: the inhibition at 0.1 µM in data set [1] amounted to 35.5%; in [2], 58.9%; in data set [3], 28.9%; in data set [4], 35.4%; in data set [5], 24.6%. Moreover, the inhibition at 72 h, 0.1 µM in data set [6] came out at 6.66%.
